Experimental findings from patent US11331369B2, “Endoparasitic depsipeptides” (Zoetis Services LLC, priority 2017, dated 2022) are described below.

Common to all, as to assay type: cell-based
For assay [1], the system named is microfilariae of Dirofilaria immitis. Nature of the assay: Dirofilaria immitis, Microfilaria (DiMF) In vitro Assay. The settings on record: 72 h, read-out: DiMF Minimum Effective Dose (MED), approximately 72 hours incubation, microfilariae assessed for survival or paralysis.
Assay [2] relates to 4th stage larvae (L4) of Dirofilaria immitis. Put plainly: Dirofilaria immitis, L4 Stage (DiL4) In Vitro Assay. The settings on record: Dirofilaria immitis, 72 h, read-out: DiL4 Minimum Effective Dose (MED), approximately 72 hours incubation; L4 larvae assessed for survival or paralysis.
The test system of assay [3] is third stage larvae of Haemonchus contortus. Nature of the assay: Haemonchus contortus L3 (HcL3) Assay. The settings on record: 96 h, read-out: HcL3 Minimum Effective Dose (MED).

With `CC(C)C[C@H]1C(=O)O[C@H](Cc2ccc(Cn3ncnc3C3CCCC3)cc2)C(=O)N(C)[C@@H](CC(C)C)C(=O)O[C@H](C)C(=O)N(C)[C@@H](CC(C)C)C(=O)O[C@H](Cc2ccc(Cn3ncnc3C3CCCC3)cc2)C(=O)N(C)[C@@H](CC(C)C)C(=O)O[C@H](C)C(=O)N1C` [Example 9-52, (3S,6R,9S,12R,15S,18R,21S,24R)-6,18-bis(4-((5-cyclopentyl-1H-1,2,4-triazol-1-yl)methyl)benzyl)-3,9,15,21-tetraisobutyl-4,10,12,16,22,24-hexamethyl-1,7,13,19-tetraoxa-4,10,16,22-tetraazacyclotetracosan-2,5,8,11,14,17,20,23-octaone], the minimal effective concentration in assay [1] was 0.001 to 0.01 µM; in assay [2] it was 0.001 to 0.01 µM; in assay [3], 1 to 10 µM.
For the molecule `CC(C)C[C@H]1C(=O)O[C@H](Cc2ccc(Cn3nccc3C3(Cl)CC3)cc2)C(=O)N(C)[C@@H](CC(C)C)C(=O)O[C@H](C)C(=O)N(C)[C@@H](CC(C)C)C(=O)O[C@H](Cc2ccc(Cn3nccc3C3(Cl)CC3)cc2)C(=O)N(C)[C@@H](CC(C)C)C(=O)O[C@H](C)C(=O)N1C` [Example 1b-217, (3S,6R,9S,12R,15S,18R,21S,24R)-6,18-bis(4-((5-(1-chlorocyclopropyl)-1H-pyrazol-1-yl)methyl)benzyl)-3,9,15,21-tetraisobutyl-4,10,12,16,22,24-hexamethyl-1,7,13,19-tetraoxa-4,10,16,22-tetraazacyclotetracosan-2,5,8,11,14,17,20,23-octaone], the minimal effective concentration was 0.01 to 0.1 µM in assay [1], 0.0001 to 0.001 µM in assay [2] and at most 1 µM in assay [3].
As to `CC(C)C[C@H]1C(=O)O[C@H](Cc2ccc(Cn3ccc(OC(C)C)n3)cc2)C(=O)N(C)[C@@H](CC(C)C)C(=O)O[C@H](C)C(=O)N(C)[C@@H](CC(C)C)C(=O)O[C@H](Cc2ccc(Cn3ccc(OC(C)C)n3)cc2)C(=O)N(C)[C@@H](CC(C)C)C(=O)O[C@H](C)C(=O)N1C` [Example 1b-151, (3S,6R,9S,12R,15S,18R,21S,24R)-3,9,15,21-tetraisobutyl-6,18-bis(4-((3-isopropoxy-1H-pyrazol-1-yl)methyl)benzyl)-4,10,12,16,22,24-hexamethyl-1,7,13,19-tetraoxa-4,10,16,22-tetraazacyclotetracosan-2,5,8,11,14,17,20,23-octaone], the minimal effective concentration in assay [1] is 0.001 to 0.01 µM; in assay [2] it was 0.0001 to 0.001 µM; in assay [3] it was at most 1 µM.
The corresponding values for `COCCOc1cnn(Cc2ccc(C[C@H]3OC(=O)[C@H](CC(C)C)N(C)C(=O)[C@@H](C)OC(=O)[C@H](CC(C)C)N(C)C(=O)[C@@H](Cc4ccc(Cn5cc(OCCOC)cn5)cc4)OC(=O)[C@H](CC(C)C)N(C)C(=O)[C@@H](C)OC(=O)[C@H](CC(C)C)N(C)C3=O)cc2)c1` [Example 1b-203, (3S,6R,9S,12R,15S,18R,21S,24R)-3,9,15,21-tetraisobutyl-6,18-bis[[4-[[4-(2-methoxyethoxy)pyrazol-1-yl]methyl]phenyl]methyl]-4,10,12,16,22,24-hexamethyl-1,7,13,19-tetraoxa-4,10,16,22-tetrazacyclotetracosane-2,5,8,11,14,17,20,23-octaone] are 0.001 to 0.01 µM, 0.001 to 0.01 µM and 10 to 100 µM.
Taken in the same sequence, the figures for `CC(C)C[C@H]1C(=O)O[C@H](Cc2ccc(Cn3cc(I)cn3)cc2)C(=O)N(C)[C@@H](CC(C)C)C(=O)O[C@H](C)C(=O)N(C)[C@@H](CC(C)C)C(=O)O[C@H](Cc2ccc(Cn3cc(I)cn3)cc2)C(=O)N(C)[C@@H](CC(C)C)C(=O)O[C@H](C)C(=O)N1C` [Example 1b-46, (3S,6R,9S,12R,15S,18R,21S,24R)-6,18-bis(4-((4-iodo-1H-pyrazol-1-yl)methyl)benzyl)-3,9,15,21-tetraisobutyl-4,10,12,16,22,24-hexamethyl-1,7,13,19-tetraoxa-4,10,16,22-tetraazacyclotetracosan-2,5,8,11,14,17,20,23-octaone] were 0.001 to 0.01 µM, 0.0001 to 0.001 µM and 1 to 10 µM.
Taken in the same sequence, the figures for `Cc1ccc(C#N)n1Cc1ccc(C[C@H]2OC(=O)[C@H](CC(C)C)N(C)C(=O)[C@@H](C)OC(=O)[C@H](CC(C)C)N(C)C(=O)[C@@H](Cc3ccc(Cn4c(C)ccc4C#N)cc3)OC(=O)[C@H](CC(C)C)N(C)C(=O)[C@@H](C)OC(=O)[C@H](CC(C)C)N(C)C2=O)cc1` [Example 9-48, 1,1′-(((((2R,5S,8R,11 S,14R,17S,20R,23S)-5,11,17,23-tetraisobutyl-4,8,10,16,20,22-hexamethyl-3,6,9,12,15,18,21,24-octaoxo-1,7,13,19-tetraoxa-4,10,16,22-tetraazacyclotetracosane-2,14-diyl)bis(methylene))bis(4,1-phenylene))bis(methylene))bis(5-methyl-1H-pyrrole-2-carbonitrile)] were 0.001 to 0.01 µM, at most 0.0001 µM and at most 1 µM.
For the molecule `CC(C)C[C@H]1C(=O)O[C@H](Cc2ccc(Cn3nccc3C3CC3(F)F)cc2)C(=O)N(C)[C@@H](CC(C)C)C(=O)O[C@H](C)C(=O)N(C)[C@@H](CC(C)C)C(=O)O[C@H](Cc2ccc(Cn3nccc3C3CC3(F)F)cc2)C(=O)N(C)[C@@H](CC(C)C)C(=O)O[C@H](C)C(=O)N1C` (stereo partly drawn) [Example 1b-216, (3S,6R,9S,12R,15S,18R,21S,24R)-6,18-bis(4-((5-(2,2-difluorocyclopropyl)-1H-pyrazol-1-yl)methyl)benzyl)-3,9,15,21-tetraisobutyl-4,10,12,16,22,24-hexamethyl-1,7,13,19-tetraoxa-4,10,16,22-tetraazacyclotetracosan-2,5,8,11,14,17,20,23-octaone], the minimal effective concentration was 0.001 to 0.01 µM in assay [1], at most 0.0001 µM in assay [2] and at most 1 µM in assay [3].
For the molecule `CC(C)C[C@H]1C(=O)O[C@H](Cc2ccc(Cn3nccc3C(C)(C)C)cc2)C(=O)N(C)[C@@H](CC(C)C)C(=O)O[C@H](C)C(=O)N(C)[C@@H](CC(C)C)C(=O)O[C@H](Cc2ccc(Cn3nccc3C(C)(C)C)cc2)C(=O)N(C)[C@@H](CC(C)C)C(=O)O[C@H](C)C(=O)N1C` [Example 1b-127, (3S,6R,9S,12R,15S,18R,21S,24R)-6,18-bis(4-((5-(tert-butyl)-1H-pyrazol-1-yl)methyl)benzyl)-3,9,15,21-tetraisobutyl-4,10,12,16,22,24-hexamethyl-1,7,13,19-tetraoxa-4,10,16,22-tetraazacyclotetracosan-2,5,8,11,14,17,20,23-octaone], the minimal effective concentration in assay [1] is 0.01 to 0.1 µM; in assay [2], 0.001 to 0.01 µM; in assay [3] it was 1 to 10 µM.
The corresponding values for `CCc1ccnn1Cc1ccc(C[C@H]2OC(=O)[C@H](CC(C)C)N(C)C(=O)[C@@H](C)OC(=O)[C@H](CC(C)C)N(C)C(=O)[C@@H](Cc3ccc(Cn4nccc4CC)cc3)OC(=O)[C@H](CC(C)C)N(C)C(=O)[C@@H](C)OC(=O)[C@H](CC(C)C)N(C)C2=O)cc1` [Example 1b-165, (3S,6R,9S,12R,15S,18R,21S,24R)-6,18-bis(4-((5-ethyl-1H-pyrazol-1-yl)methyl)benzyl)-3,9,15,21-tetraisobutyl-4,10,12,16,22,24-hexamethyl-1,7,13,19-tetraoxa-4,10,16,22-tetraazacyclotetracosan-2,5,8,11,14,17,20,23-octaone] are 0.001 to 0.01 µM, 0.0001 to 0.001 µM and at most 1 µM.
Taken in the same sequence, the figures for `CC(C)C[C@H]1C(=O)O[C@H](Cc2ccc(Cn3nccc3C(F)(F)F)cc2)C(=O)N(C)[C@@H](CC(C)C)C(=O)O[C@H](C)C(=O)N(C)[C@@H](CC(C)C)C(=O)O[C@H](Cc2ccc(Cn3ccc(C(F)(F)F)n3)cc2)C(=O)N(C)[C@@H](CC(C)C)C(=O)O[C@H](C)C(=O)N1C` [Example 1a-26, (3S,6R,9S,12R,15S,18R,21S,24R)-3,9,15,21-tetraisobutyl-4,6,10,16,18,22-hexamethyl-12-(4-((3-(trifluoromethyl)-1H-pyrazol-1-yl)methyl)benzyl)-24-(4-((5-(trifluoromethyl)-1H-pyrazol-1-yl)methyl)benzyl)-1,7,13,19-tetraoxa-4,10,16,22-tetraazacyclotetracosan-2,5,8,11,14,17,20,23-octaone] were 0.01 to 0.1 µM, 0.0001 to 0.001 µM and 1 to 10 µM.
Taken in the same sequence, the figures for `CC(C)C[C@H]1C(=O)O[C@H](Cc2ccc(Cn3nccc3C3CC3)cc2)C(=O)N(C)[C@@H](CC(C)C)C(=O)O[C@H](C)C(=O)N(C)[C@@H](CC(C)C)C(=O)O[C@H](Cc2ccccc2)C(=O)N(C)[C@@H](CC(C)C)C(=O)O[C@H](C)C(=O)N1C` [Example 2-66, (3S,6R,9S,12R,15S,18R,21S,24R)-6-benzyl-18-(4-((5-cyclopropyl-1H-pyrazol-1-yl)methyl)benzyl)-3,9,15,21-tetraisobutyl-4,10,12,16,22,24-hexamethyl-1,7,13,19-tetraoxa-4,10,16,22-tetraazacyclotetracosan-2,5,8,11,14,17,20,23-octaone] were 0.001 to 0.01 µM, 0.0001 to 0.001 µM and 1 to 10 µM.
Regarding `CC(C)C[C@H]1C(=O)O[C@H](Cc2ccc(Cn3nccc3C3(C)CC3)cc2)C(=O)N(C)[C@@H](CC(C)C)C(=O)O[C@H](C)C(=O)N(C)[C@@H](CC(C)C)C(=O)O[C@H](Cc2ccc(Cn3nccc3C3(C)CC3)cc2)C(=O)N(C)[C@@H](CC(C)C)C(=O)O[C@H](C)C(=O)N1C` [Example 1b-219, (3S,6R,9S,12R,15S,18R,21S,24R)-3,9,15,21-tetraisobutyl-4,6,10,16,18,22-hexamethyl-12,24-bis(4-((5-(1-methylcyclopropyl)-1H-pyrazol-1-yl)methyl)benzyl)-1,7,13,19-tetraoxa-4,10,16,22-tetraazacyclotetracosan-2,5,8,11,14,17,20,23-octaone], the minimal effective concentration is 0.01 to 0.1 µM in assay [1], 0.0001 to 0.001 µM in assay [2] and at most 1 µM in assay [3].
